# In ChEMBL document CHEMBL1149524 (Bioorg Med Chem Lett, 2006):
# Experiments:
# [1] = Cmax in Wistar rat at 10 mg/kg, po; format: ADME, organism-based; set-up: dose 10 mg/kg, route oral; conditions: in vivo
# [2] = AUC in Wistar rat at 10 mg/kg, po; format: ADME, organism-based; set-up: dose 10 mg/kg, route oral; conditions: plasma
# [3] = Solubility at pH 6.8; format: physicochemical; conditions: buffer
# [4] = Half life in Wistar rat at 10 mg/kg, po; format: ADME, organism-based; set-up: dose 10 mg/kg, route oral; conditions: in vivo
# [5] = tested on: Liver microsomes; experiment: Stability in rat liver microsomes; format: ADME, Microsome
# [6] = Bioavailability in Wistar rat at 10 mg/kg, po; format: ADME, organism-based; conditions: in vivo
# [7] = molecular target: Cathepsin S (Homo sapiens, UniProt P25774); experiment: Inhibition of cathepsin S; format: single protein
# [8] = molecular target: T1, Cathepsin K (Homo sapiens, UniProt P43235); experiment: Inhibition of cathepsin K; format: single protein
# T1 sequence (P43235 whole entry): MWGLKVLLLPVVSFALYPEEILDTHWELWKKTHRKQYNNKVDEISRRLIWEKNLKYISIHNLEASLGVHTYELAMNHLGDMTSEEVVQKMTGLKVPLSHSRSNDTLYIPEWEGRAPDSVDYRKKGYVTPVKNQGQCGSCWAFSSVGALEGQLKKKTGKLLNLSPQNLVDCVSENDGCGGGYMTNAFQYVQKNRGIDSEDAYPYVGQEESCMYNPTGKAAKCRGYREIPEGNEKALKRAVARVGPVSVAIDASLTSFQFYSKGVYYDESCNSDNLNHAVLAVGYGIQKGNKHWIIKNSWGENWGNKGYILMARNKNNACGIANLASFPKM
# [9] = molecular target: Procathepsin L (Homo sapiens, UniProt P07711)
# Description: Inhibition of cathepsin L
# [10] = molecular target: T2, Cathepsin L2 (Homo sapiens, UniProt O60911); experiment: Inhibition of cathepsin V
# T2 sequence (O60911 whole entry): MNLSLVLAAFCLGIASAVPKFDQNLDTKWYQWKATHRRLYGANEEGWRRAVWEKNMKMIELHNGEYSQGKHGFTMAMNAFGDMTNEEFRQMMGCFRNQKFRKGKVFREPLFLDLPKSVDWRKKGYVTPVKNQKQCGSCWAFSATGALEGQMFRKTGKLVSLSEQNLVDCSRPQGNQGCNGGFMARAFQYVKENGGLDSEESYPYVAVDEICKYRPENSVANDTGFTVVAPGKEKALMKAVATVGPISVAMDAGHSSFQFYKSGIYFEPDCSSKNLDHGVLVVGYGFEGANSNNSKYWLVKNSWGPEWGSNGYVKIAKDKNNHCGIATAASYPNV
# [11] = molecular target: Cathepsin B (Homo sapiens, UniProt P07858); experiment: Inhibition of cathepsin B
# [12] = molecular target: Cathepsin Z (Homo sapiens, UniProt Q9UBR2); experiment: Inhibition of cathepsin X
# [13] = Clearance in Wistar rat at 3 mg/kg, iv; format: ADME, organism-based; set-up: dose 3 mg/kg, route intravenous; conditions: in vivo
# [14] = molecular target: T3, Pro-cathepsin H (Homo sapiens, UniProt P09668); experiment: Inhibition of cathepsin H
# T3 sequence (P09668 whole entry): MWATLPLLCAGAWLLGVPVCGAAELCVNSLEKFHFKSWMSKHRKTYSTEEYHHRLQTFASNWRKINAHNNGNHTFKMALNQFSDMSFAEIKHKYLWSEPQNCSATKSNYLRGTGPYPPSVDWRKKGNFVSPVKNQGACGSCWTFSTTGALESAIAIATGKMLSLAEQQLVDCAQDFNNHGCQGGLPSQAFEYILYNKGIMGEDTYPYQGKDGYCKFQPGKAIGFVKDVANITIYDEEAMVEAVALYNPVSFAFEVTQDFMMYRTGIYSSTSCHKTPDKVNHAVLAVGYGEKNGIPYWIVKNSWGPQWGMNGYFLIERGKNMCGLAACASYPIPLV
# [15] = molecular target: T4, Cathepsin F (Homo sapiens, UniProt Q9UBX1); experiment: Inhibition of cathepsin F
# T4 sequence (Q9UBX1 whole entry): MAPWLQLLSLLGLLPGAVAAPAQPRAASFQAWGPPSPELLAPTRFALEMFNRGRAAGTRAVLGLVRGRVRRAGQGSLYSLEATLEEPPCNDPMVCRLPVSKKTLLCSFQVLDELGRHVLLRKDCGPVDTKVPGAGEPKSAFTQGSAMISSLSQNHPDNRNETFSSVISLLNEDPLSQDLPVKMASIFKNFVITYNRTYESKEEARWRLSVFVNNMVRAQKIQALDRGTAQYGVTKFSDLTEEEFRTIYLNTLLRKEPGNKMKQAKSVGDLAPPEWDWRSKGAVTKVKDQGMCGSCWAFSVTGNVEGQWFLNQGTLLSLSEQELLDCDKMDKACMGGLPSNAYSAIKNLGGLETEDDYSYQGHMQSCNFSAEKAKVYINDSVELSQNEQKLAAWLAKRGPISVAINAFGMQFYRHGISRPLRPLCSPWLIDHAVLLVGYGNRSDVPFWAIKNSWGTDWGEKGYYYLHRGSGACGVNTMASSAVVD
# [16] = Half life in Wistar rat at 3 mg/kg, iv; format: ADME, organism-based; set-up: dose 3 mg/kg, route intravenous; conditions: in vivo
# [17] = Volume of distribution in Wistar rat at 3 mg/kg, iv; format: ADME, organism-based; set-up: dose 3 mg/kg, route intravenous; conditions: in vivo, read-out: Vdss
# Cathepsin S, sequence (P25774 whole entry): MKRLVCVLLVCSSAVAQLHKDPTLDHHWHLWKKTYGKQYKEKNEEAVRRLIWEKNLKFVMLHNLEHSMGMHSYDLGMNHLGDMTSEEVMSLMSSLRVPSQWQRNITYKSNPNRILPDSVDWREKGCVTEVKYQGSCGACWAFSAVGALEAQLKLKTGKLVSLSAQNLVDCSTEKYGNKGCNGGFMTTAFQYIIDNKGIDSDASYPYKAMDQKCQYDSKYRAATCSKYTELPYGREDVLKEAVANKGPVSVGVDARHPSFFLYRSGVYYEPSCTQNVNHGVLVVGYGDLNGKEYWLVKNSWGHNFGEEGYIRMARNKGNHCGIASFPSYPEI
# Procathepsin L, sequence (P07711 whole entry): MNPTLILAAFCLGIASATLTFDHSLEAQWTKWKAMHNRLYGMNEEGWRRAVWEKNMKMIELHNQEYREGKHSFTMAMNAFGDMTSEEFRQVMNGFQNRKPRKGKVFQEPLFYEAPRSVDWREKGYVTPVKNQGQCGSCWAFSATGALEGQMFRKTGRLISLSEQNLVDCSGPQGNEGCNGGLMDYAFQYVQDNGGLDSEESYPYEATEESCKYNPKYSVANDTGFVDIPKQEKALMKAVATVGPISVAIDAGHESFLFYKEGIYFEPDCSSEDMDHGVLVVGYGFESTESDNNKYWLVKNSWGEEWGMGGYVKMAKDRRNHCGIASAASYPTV
# Cathepsin Z, sequence (Q9UBR2 whole entry): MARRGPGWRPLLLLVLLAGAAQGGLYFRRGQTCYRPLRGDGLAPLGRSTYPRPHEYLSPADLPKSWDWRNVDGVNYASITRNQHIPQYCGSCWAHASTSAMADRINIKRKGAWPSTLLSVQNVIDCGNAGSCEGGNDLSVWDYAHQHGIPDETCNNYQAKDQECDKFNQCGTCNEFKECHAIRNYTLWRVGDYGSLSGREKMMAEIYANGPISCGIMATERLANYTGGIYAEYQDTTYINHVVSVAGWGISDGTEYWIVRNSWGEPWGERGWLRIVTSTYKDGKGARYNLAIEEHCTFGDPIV
SMILES,Ki [7],Ki [8],Ki [9],also measured
COc1ccc(NCCNC(=O)[C@H](CC2CCCCC2)NC(=O)c2ccc(-c3cccc(C(F)(F)F)c3)o2)cc1,–,–,–,Cmax [1]: 19 nM; AUC [2]: 50 ng·h/mL; solubility [3]: < 1 µg/mL; half-life [4]: 146 min; Stability [5]: 12%
COc1ccc(NCCNC(=O)[C@H](CC2CCCCC2)Nc2nc3ccccc3o2)cc1,–,–,–,bioavailability [6]: < 1%; solubility [3]: 10 µg/mL; Stability [5]: 4%
C[C@@H](CNc1ccc(OC(F)(F)F)cc1)NC(=O)[C@H](CC1CCCCC1)NC(=O)OC1CCOCC1,12 nM,13.3 µM,–,–
C[C@@H](CNc1ccc(OC(F)(F)F)cc1)NC(=O)[C@H](CC1CCCCC1)NC(=O)O[C@@H]1CCOC1,42 nM,> 30 µM,2570 nM,–
C[C@@H](CNc1ccc(OC(F)(F)F)cc1)NC(=O)[C@H](CS(=O)(=O)Cc1ccccc1)NC(=O)N1CCOCC1,–,> 100 µM,> 30000 nM,Cmax [1]: 639 nM; AUC [2]: 700 ng·h/mL; bioavailability [6]: 16%; Ki [10]: > 30 µM; Ki [11]: > 30 µM; Ki [12]: > 30 µM; clearance [13]: 39 mL/min/kg; Ki [14]: > 30 µM; Ki [15]: > 30 µM; solubility [3]: 43 µg/mL; half-life [4]: 66 min; half-life [16]: 49 min; Vd [17]: 0.87 L/kg; Stability [5]: 100%
CC[C@@H](CNc1ccc(OC(F)(F)F)cc1)NC(=O)[C@H](CC1CCCCC1)NC(=O)N1CCOCC1,11 nM,0.13 µM,6 nM,–
C[C@@H](CNc1ccc(OC(F)(F)F)cc1)NC(=O)[C@H](CC1CCCCC1)NC(=O)C1CCOCC1,12 nM,14.3 µM,–,–
C[C@@H](CN1CCc2cc(F)ccc21)NC(=O)[C@H](CC1CCCCC1)NC(=O)N1CCOCC1,87 nM,5.13 µM,–,–
CC(C)(C)C[C@H](NC(=O)N1CCOCC1)C(=O)NCCNc1ccc(OC(F)(F)F)cc1,220 nM,1.33 µM,> 30000 nM,–
C[C@@H](CNc1ccc(OC(F)(F)F)cc1)NC(=O)[C@H](CC1CCCCC1)NC(=O)[C@H]1CCCO1,18 nM,4.61 µM,–,Cmax [1]: 1240 nM; AUC [2]: 1750 ng·h/mL; bioavailability [6]: 36%; clearance [13]: 35 mL/min/kg; solubility [3]: 25 µg/mL; half-life [4]: 58 min; half-life [16]: 66 min; Vd [17]: 1.78 L/kg; Stability [5]: 66%
C[C@@H](CNc1ccc(OC(F)(F)F)cc1)NC(=O)[C@H](CC1CCCCC1)NC(=O)[C@@H]1CCCO1,53 nM,> 30 µM,–,–
O=C(N[C@@H](CC1CCCCC1)C(=O)NCCNc1ccc(OC(F)(F)F)cc1)c1ccc(-c2cccc(F)c2)o1,34 nM,11.7 µM,–,–
C[C@@H](CNc1ccc(OC(F)(F)F)cc1)NC(=O)[C@H](CSCc1ccccc1)NC(=O)N1CCOCC1,12 nM,2.48 µM,–,–
O=C(NCCNc1ccc(OC(F)(F)F)cc1)[C@H](CC1CCCCC1)NC(=O)N1CCOCC1,99 nM,18.8 µM,–,–
O=C(N[C@@H](CC1CCCCC1)C(=O)NCCNc1ccc(OC(F)(F)F)cc1)c1ccoc1,6 nM,9.34 µM,–,–
O=C(NCCNc1ccc(OC(F)(F)F)cc1)[C@H](CC1CCCCC1)NC(=O)[C@H]1CCCO1,658 nM,> 30 µM,3120 nM,–
C[C@@H](CNc1ccc(OC(F)(F)F)cc1)NC(=O)[C@H](CC(C)(C)C)NC(=O)N1CCOCC1,93 nM,0.461 µM,14600 nM,–
C[C@@H](CNc1ccc(OC(F)(F)F)cc1)NC(=O)[C@H](CC1CCCCC1)NC(=O)N1CCOCC1,11 nM,1.66 µM,–,–
C[C@@H](CNc1ccc(OC(F)(F)F)cc1)NC(=O)[C@H](CC1CCCCC1)NC(=O)C1CCOC1 (stereo partly drawn),21 nM,> 30 µM,4790 nM,Cmax [1]: 491 nM; AUC [2]: 817 ng·h/mL; bioavailability [6]: 19%; clearance [13]: 39 mL/min/kg; solubility [3]: 30 µg/mL; half-life [4]: 90 min; half-life [16]: 108 min; Vd [17]: 2.48 L/kg; Stability [5]: 56%
O=C(N[C@@H](CC1CCCCC1)C(=O)NCCNc1ccc(OC(F)(F)F)cc1)c1ccco1,47 nM,8.81 µM,1150 nM,–
CS(=O)(=O)CC[C@@H](CNc1ccc(OC(F)(F)F)cc1)NC(=O)[C@H](CC1CCCCC1)NC(=O)N1CCOCC1,5 nM,0.139 µM,4 nM,–
C[C@@H](CN1CC(C)(C)c2cc(F)ccc21)NC(=O)[C@H](CC1CCCCC1)NC(=O)N1CCOCC1,11 nM,16.9 µM,810 nM,solubility [3]: 10 µg/mL; Stability [5]: < 1%
C[C@@H](CNc1ccc(OC(F)(F)F)cc1)NC(=O)[C@H](CC1CCCC1)NC(=O)N1CCOCC1,49 nM,1.54 µM,–,–
O=C(N[C@@H](CC1CCCCC1)C(=O)NCCNc1ccc(OC(F)(F)F)cc1)c1ccc(-c2cccc(C(F)(F)F)c2)o1,11 nM,8.58 µM,–,–
O=C(N[C@@H](CC1CCCCC1)C(=O)NCCNc1ccc(OC(F)(F)F)cc1)C1CCOC1 (stereo partly drawn),213 nM,> 30 µM,7940 nM,–
O=C(N[C@@H](CC1CCCCC1)C(=O)NCCNc1ccc(OC(F)(F)F)cc1)c1cc2ccccc2o1,17 nM,0.15 µM,–,–
C[C@@H](CN1c2ccc(F)cc2CC1(C)C)NC(=O)[C@H](CC1CCCCC1)NC(=O)N1CCOCC1,111 nM,13.1 µM,–,–
O=C(NCCNc1ccc(OC(F)(F)F)cc1)[C@H](Cc1ccccc1)NC(=O)N1CCOCC1,11400 nM,> 100 µM,> 100000 nM,–
C[C@@H](CNc1ccc(OC(F)(F)F)cc1)NC(=O)[C@H](CC1CCCCC1)NC(=O)O[C@H]1CCOC1,49 nM,> 30 µM,594 nM,–
